In PubChem BioAssay (NCI):
Where “and” joins values, the source holds several entries; their conditions need not be identical. Equal values may be shown once.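 Assay format: 96-well plates, 48-hour exposure. Abbreviation: GI50, concentration required for 50% inhibition of growth. TGI: total growth inhibition.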

What was measured:
Test in all cases: growth of human tumour cells (NCI), 48 h
TK-10 renal = system: TK-10 renal
MALME-3M melanoma = system: MALME-3M melanoma
K-562 leukemia = system: K-562 leukemia
CAKI-1 renal = system: CAKI-1 renal
SK-MEL-5 melanoma = system: SK-MEL-5 melanoma
HT29 colon = system: HT29 colon
M14 melanoma = system: M14 melanoma
A549 NSCLC = system: A549 NSCLC
U251 CNS = system: U251 CNS
HOP-92 NSCLC = system: HOP-92 NSCLC

Compound: CN(C)c1ccc([O-])cc1.CN(C)c1ccc([O-])cc1.CN(C)c1ccc([O-])cc1.CN(C)c1ccc([O-])cc1.[Ti+4]
- GI50 (TK-10 renal): > 100 µM
- TGI (TK-10 renal): > 100 µM
- GI50 (MALME-3M melanoma): > 100 µM
- TGI (MALME-3M melanoma): > 100 µM
- GI50 (K-562 leukemia): 37.9 µM
- TGI (K-562 leukemia): > 100 µM
- GI50 (CAKI-1 renal): > 100 µM
- TGI (CAKI-1 renal): > 100 µM
- GI50 (SK-MEL-5 melanoma): 51.5 µM
- TGI (SK-MEL-5 melanoma): > 100 µM
- GI50 (HT29 colon): > 100 µM
- TGI (HT29 colon): > 100 µM
- GI50 (M14 melanoma): > 100 µM
- TGI (M14 melanoma): > 100 µM
- GI50 (A549 NSCLC): 51.9 µM
- TGI (A549 NSCLC): > 100 µM

Compound: O=C1C=CC=CC2CC=C[C@@H](O)C12 (some centres undefined)
- TGI (TK-10 renal): > 100 µM
- TGI (MALME-3M melanoma): 46.8 µM
- TGI (K-562 leukemia): > 100 µM
- TGI (CAKI-1 renal): > 100 µM
- TGI (SK-MEL-5 melanoma): 38 µM
- TGI (HT29 colon): 37.7 µM
- TGI (M14 melanoma): 50.7 µM
- TGI (A549 NSCLC): 67.7 µM

Compound: O=C(O)COc1ccc(O)c2c1C(=O)CCCC2=O
- TGI (TK-10 renal): > 100 µM
- TGI (MALME-3M melanoma): > 100 µM
- TGI (K-562 leukemia): > 100 µM
- TGI (U251 CNS): > 100 µM
- TGI (CAKI-1 renal): > 100 µM
- TGI (SK-MEL-5 melanoma): > 100 µM
- TGI (HT29 colon): > 100 µM
- TGI (M14 melanoma): > 100 µM
- TGI (A549 NSCLC): > 100 µM

Compound: CSC(CC(=O)O)C(=O)O (centres undefined)
- TGI (TK-10 renal): > 100 µM
- TGI (MALME-3M melanoma): > 100 µM
- TGI (U251 CNS): > 100 µM
- TGI (CAKI-1 renal): > 100 µM
- TGI (HOP-92 NSCLC): > 100 µM
- TGI (SK-MEL-5 melanoma): > 100 µM
- TGI (HT29 colon): > 100 µM
- TGI (M14 melanoma): > 100 µM
- TGI (A549 NSCLC): > 100 µM

Compound: COc1cc(/C=C2\CCC/C(=C\c3cc(OC)c(O)c(OC)c3)C2=O)cc(OC)c1O
- TGI (TK-10 renal): > 100 µM
- TGI (MALME-3M melanoma): 4.38 µM and 3.3 µM
- GI50 (K-562 leukemia): 2.26 µM
- TGI (K-562 leukemia): 75 µM and > 100 µM
- TGI (U251 CNS): 2.76 µM and 3.14 µM
- GI50 (CAKI-1 renal): 2.51 µM
- TGI (CAKI-1 renal): 4.38 µM and 7.62 µM
- GI50 (SK-MEL-5 melanoma): 2.83 µM
- TGI (SK-MEL-5 melanoma): 75 µM and 19.6 µM
- GI50 (HT29 colon): 3.8 µM
- TGI (HT29 colon): 38 µM and > 100 µM
- GI50 (M14 melanoma): 2.9 µM
- TGI (M14 melanoma): 75 µM and 69.4 µM
- GI50 (A549 NSCLC): 3.14 µM

Compound: NCCCOCC(=O)O
- TGI (TK-10 renal): > 100 µM
- TGI (MALME-3M melanoma): > 100 µM
- TGI (K-562 leukemia): > 100 µM
- TGI (U251 CNS): > 100 µM
- TGI (HOP-92 NSCLC): > 100 µM
- TGI (SK-MEL-5 melanoma): > 100 µM
- TGI (HT29 colon): > 100 µM
- TGI (A549 NSCLC): > 100 µM

Compound: CC1CCP(=O)(c2ccccc2)c2ccccc21 (centres undefined)
- TGI (TK-10 renal): > 100 µM
- TGI (MALME-3M melanoma): > 100 µM
- TGI (K-562 leukemia): 62.9 µM
- TGI (U251 CNS): 53.3 µM
- TGI (SK-MEL-5 melanoma): > 100 µM
- TGI (HT29 colon): > 100 µM
- TGI (M14 melanoma): > 100 µM
- TGI (A549 NSCLC): > 100 µM

Compound: CC1CC#CCOC(=O)CCCC1=O (centres undefined)
- TGI (TK-10 renal): > 100 µM
- TGI (K-562 leukemia): > 100 µM
- TGI (U251 CNS): > 100 µM
- TGI (SK-MEL-5 melanoma): > 100 µM
- TGI (HT29 colon): > 100 µM
- TGI (M14 melanoma): > 100 µM
- TGI (A549 NSCLC): > 100 µM

Compound: O=C(Nc1cccs1)c1c(O)[nH]c(=S)[nH]c1=O
- TGI (TK-10 renal): > 100 µM
- TGI (K-562 leukemia): > 100 µM
- TGI (U251 CNS): > 100 µM
- TGI (CAKI-1 renal): > 100 µM
- TGI (HOP-92 NSCLC): > 100 µM
- TGI (SK-MEL-5 melanoma): > 100 µM
- TGI (M14 melanoma): > 100 µM
- TGI (A549 NSCLC): > 100 µM

Compound: C/C(=N\O)c1cccc(Nc2cc(-n3ccnn3)c3ccccc3n2)c1
- GI50 (TK-10 renal): 16.9 µM
- TGI (TK-10 renal): 46.3 µM
- GI50 (K-562 leukemia): 14.9 µM
- TGI (K-562 leukemia): 36.5 µM
- GI50 (U251 CNS): 19.9 µM
- TGI (U251 CNS): 62.2 µM
- GI50 (CAKI-1 renal): 21.3 µM
- TGI (CAKI-1 renal): 70.6 µM
- GI50 (HOP-92 NSCLC): 13.9 µM
- TGI (HOP-92 NSCLC): 38.2 µM
- GI50 (SK-MEL-5 melanoma): 13.4 µM
- TGI (SK-MEL-5 melanoma): 26.2 µM
- GI50 (HT29 colon): 2.17 µM
- TGI (HT29 colon): 82.5 µM
- GI50 (A549 NSCLC): 16.9 µM
- TGI (A549 NSCLC): 43.2 µM

Compound: O=C(Nc1ccc(F)cc1)c1ccc(NC2=C(Cl)C(=O)N(Cc3ccccc3)C2=O)cc1
- GI50 (K-562 leukemia): 3.79 µM
- TGI (K-562 leukemia): 13.7 µM
- GI50 (U251 CNS): 11 µM
- TGI (U251 CNS): 24.1 µM
- GI50 (CAKI-1 renal): 1.78 µM
- TGI (CAKI-1 renal): 3.36 µM
- GI50 (HOP-92 NSCLC): 5.23 µM
- TGI (HOP-92 NSCLC): 19.1 µM
- GI50 (SK-MEL-5 melanoma): 18.5 µM
- TGI (SK-MEL-5 melanoma): 63.7 µM
- GI50 (HT29 colon): 13.1 µM
- TGI (HT29 colon): > 100 µM
- GI50 (M14 melanoma): 13.4 µM
- TGI (M14 melanoma): 30.3 µM
- GI50 (A549 NSCLC): 8.68 µM
- TGI (A549 NSCLC): 39 µM

Compound: CC(C)CNCC(O)COc1ccc(C(C)(C)c2ccc(OCC(O)CNCC(C)C)cc2)cc1 (centres undefined)
- GI50 (TK-10 renal): 2.03 µM
- TGI (TK-10 renal): 5.32 µM
- GI50 (MALME-3M melanoma): 1.71 µM
- TGI (MALME-3M melanoma): 3.32 µM
- GI50 (U251 CNS): 1.55 µM
- TGI (U251 CNS): 2.91 µM
- GI50 (HOP-92 NSCLC): 1.48 µM
- TGI (HOP-92 NSCLC): 9.17 µM
- GI50 (SK-MEL-5 melanoma): 1.68 µM
- TGI (SK-MEL-5 melanoma): 3.05 µM
- GI50 (HT29 colon): 1.62 µM
- TGI (HT29 colon): 3.26 µM
- GI50 (M14 melanoma): 1.76 µM
- TGI (M14 melanoma): 3.43 µM
- GI50 (A549 NSCLC): 2.08 µM
- TGI (A549 NSCLC): 4.84 µM

Compound: COc1ccc2c(c1)/C(=C\c1cccnc1)C(=O)N2
- GI50 (TK-10 renal): 18.5 µM
- TGI (TK-10 renal): 44.6 µM
- GI50 (MALME-3M melanoma): 21 µM
- TGI (MALME-3M melanoma): 47.9 µM
- GI50 (K-562 leukemia): 13.8 µM
- TGI (K-562 leukemia): > 100 µM
- GI50 (U251 CNS): 7.84 µM
- TGI (U251 CNS): 47.7 µM
- GI50 (CAKI-1 renal): 3.68 µM
- TGI (CAKI-1 renal): 9.05 µM
- GI50 (HOP-92 NSCLC): 26.6 µM
- TGI (HOP-92 NSCLC): 69.7 µM
- GI50 (SK-MEL-5 melanoma): 16.5 µM
- TGI (SK-MEL-5 melanoma): 45.7 µM
- GI50 (M14 melanoma): 31 µM
- TGI (M14 melanoma): 83.8 µM
- GI50 (A549 NSCLC): 18.2 µM
- TGI (A549 NSCLC): 56.7 µM

Compound: COc1ccc(NC(=O)C(=O)Cc2nc3ccc([N+](=O)[O-])cc3[nH]c2=O)c(OC)c1
- TGI (TK-10 renal): > 100 µM
- TGI (MALME-3M melanoma): > 100 µM
- TGI (K-562 leukemia): > 100 µM
- TGI (CAKI-1 renal): > 100 µM
- TGI (HOP-92 NSCLC): > 100 µM
- TGI (SK-MEL-5 melanoma): > 100 µM
- TGI (HT29 colon): > 100 µM
- TGI (M14 melanoma): > 100 µM
- TGI (A549 NSCLC): > 100 µM

Compound: COC(=O)C(C(=O)C(=O)Nc1ccc(C(F)(F)F)cc1[N+](=O)[O-])c1csc(-n2nc(-c3ccccc3)cc2-c2ccccc2)n1 (centres undefined)
- TGI (TK-10 renal): > 100 µM
- TGI (MALME-3M melanoma): > 100 µM
- TGI (K-562 leukemia): > 100 µM
- TGI (U251 CNS): > 100 µM
- TGI (CAKI-1 renal): > 100 µM
- TGI (HT29 colon): > 100 µM
- TGI (M14 melanoma): > 100 µM
- TGI (A549 NSCLC): > 100 µM

Compound: O=C(c1ccc(Cl)cc1)c1ccc(OCCCCCCCCCCOc2ccc(C(=O)c3ccc(Cl)cc3)cc2)cc1
- TGI (TK-10 renal): > 100 µM
- TGI (MALME-3M melanoma): > 100 µM
- TGI (K-562 leukemia): > 100 µM
- TGI (U251 CNS): > 100 µM
- TGI (CAKI-1 renal): > 100 µM
- TGI (HOP-92 NSCLC): > 100 µM
- TGI (SK-MEL-5 melanoma): > 100 µM
- TGI (HT29 colon): > 100 µM
- TGI (A549 NSCLC): > 100 µM

Compound: O=C(/C=C/c1ccccc1)CC1OC(=O)c2ccccc21 (centres undefined)
- TGI (TK-10 renal): > 100 µM
- TGI (MALME-3M melanoma): > 100 µM
- TGI (K-562 leukemia): > 100 µM
- TGI (U251 CNS): > 100 µM
- TGI (HOP-92 NSCLC): > 100 µM
- TGI (SK-MEL-5 melanoma): > 100 µM
- TGI (HT29 colon): > 100 µM
- TGI (M14 melanoma): > 100 µM
- TGI (A549 NSCLC): > 100 µM

Compound: Clc1ccc(Cc2nc3ccccc3s2)c(Cl)c1
- TGI (TK-10 renal): 38.4 µM
- TGI (MALME-3M melanoma): 30.9 µM
- TGI (K-562 leukemia): 36.2 µM
- TGI (CAKI-1 renal): 31.2 µM
- TGI (SK-MEL-5 melanoma): 32.6 µM
- TGI (HT29 colon): 40.3 µM
- TGI (M14 melanoma): 31.3 µM
- TGI (A549 NSCLC): 42.1 µM

Compound: COc1ccc(C2SCC(=O)N2NC(=O)C(O)c2ccccc2)cc1OC (centres undefined)
- GI50 (TK-10 renal): > 100 µM
- TGI (TK-10 renal): > 100 µM
- GI50 (K-562 leukemia): > 100 µM
- TGI (K-562 leukemia): > 100 µM
- GI50 (U251 CNS): > 100 µM
- TGI (U251 CNS): > 100 µM
- GI50 (CAKI-1 renal): > 100 µM
- TGI (CAKI-1 renal): > 100 µM
- GI50 (HOP-92 NSCLC): > 100 µM
- TGI (HOP-92 NSCLC): > 100 µM
- GI50 (SK-MEL-5 melanoma): > 100 µM
- TGI (SK-MEL-5 melanoma): > 100 µM
- GI50 (HT29 colon): > 100 µM
- TGI (HT29 colon): > 100 µM
- GI50 (M14 melanoma): > 100 µM
- TGI (M14 melanoma): > 100 µM
- GI50 (A549 NSCLC): > 100 µM
- TGI (A549 NSCLC): > 100 µM
